Laboratory results published in patent US20210301038A1, “POLYSIALIC ACID AND DERIVATIVES THEREOF, PHARMACEUTICAL COMPOSITION AND METHOD OF PRODUCING POLYSIALIC ACID” (Medizinische Hochschule Hannover (MHH), priority 2018, published 2021).

Key:
[1] = system: NMDAR-EPSCs (GluN1/GluN2B receptors); assay: Evoked NMDAR-EPSCs, whole-cell patch-clamp of layer V pyramidal neurons in sham- or endoNF-treated mPFC slices; assay type: cell-based, mouse; details: for inhibition of NMDAR-EPSC amplitude: sham-treated mPFC slices, DP12 1 μg/ml, then subsequently applied 0.3 μM Ro 25-6981
Source text: Each mouse was quickly sacrificed by cervical dislocation. After decapitation, the brain was rapidly removed from the skull and placed in ice-cold artificial cerebrospinal fluid (aCSF) equilibrated with 95% O2/5% CO2, which was composed of the following (in mM): 250 sucrose, 24 NaHCO3, 25 glucose, 2.5 KCl, 1.25 NaH2PO4, 2 CaCl2, and 1.5 MgCl2 (osmolarity 345-350 mOsm/kg, pH 7.4). Using a VT1200S vibratome (Leica, Nussloch, Germany), coronal slices containing the prelimbic and infralimbic cortices (1.9-1.3 mm anterior to bregma) were cut 350 μm or 400 μm thick, for patch clamp and extracellular recordings, respectively, in the same sucrose-containing aCSF. Then, the slices were transferred to a slice holding chamber filled with recording aCSF (osmolarity 300-305 mOsm/kg, pH 7.4) that contained 120 mM NaCl instead of sucrose (Eckhardt et al., 2000) and was continuously gassed with 95% O2/5% CO2.
For endoNF treatment in C57BL/6J mice, slices were first allowed to recover for 20 min at room temperature (22-24° C.) in recording aCSF and were then placed in a 24-well plate to be incubated in 2 ml of aCSF without (sham) or with addition of endoNF (10 μg/ml) at 35° C. for 2 hours. The 24-well plate was installed in a water bath (ED, Julabo, Seelbach, Germany). For field excitatory postsynaptic potential (fEPSP) recordings in knockout and transgenic mice, mPFC slices were incubated in recording aCSF for >2 hours at room temperature before recordings. For patch-clamp recordings in knockout mice, slices were incubated first at 35° C. for 20 min and then at room temperature for >30 min before recordings started. The aCSF was continuously gassed with 95% O2/5% CO2 during all incubation steps and recordings.
For whole-cell patch-clamp recordings, layer V pyramidal neurons were visualized using a SliceScope Pro 6000 equipped with a 40× water-immersion objective and infrared differential interference contrast microscopy (Scientifica, Uckfield, UK). Pyramidal cells were identified by their triangular soma and long apical dendrites, and synaptically evoked excitatory postsynaptic currents (EPSCs) were recorded using patch pipettes (3-5 MQ) fabricated using borosilicate glass capillaries (wall thickness 0.315, length 100, outer diameter 1.5 mm, Hilgenberg) and a DMZ-Zeitz puller (Zeitz Instruments GmbH, Martinsried, Germany). The intracellular pipette solution contained the following (in mM): 140.7 Cs-methane-sulfonate, 5 NaCl, 1 MgCl2, 0.2 EGTA, 10 HEPES, 3 ATP-Mg, 0.3 Na-GTP, and 3.1 QX-314 (osmolarity 295 mOsm/kg, adjusted to pH 7.2 with CsOH). EPSCs were evoked by electrical pulses (0.2 ms) at 0.033 Hz via a glass pipette placed in layer II/III of the mPFC (identically to fEPSPs). Mixed EPSCs showing a fast AMPAR-mediated component and a slow NMDAR-mediated component were recorded at a −60 mV holding potential in whole-cell voltage-clamp mode in normal aCSF. The stimulation intensity was adjusted to evoke mixed EPSCs with amplitudes of approximately 300 pA. The slow NMDAR-mediated component of EPSCs was pharmacologically isolated at −60 mV in modified aCSF containing low Mg^2+ (0.1 mM) and high Ca^2+ (3.2 mM, for adjustment of divalent cation concentrations), the selective antagonist of α-amino-3-hydroxy-5-methyl-4-isoxazolepropionic acid (AMPA)/kainate receptors NBQX (10 μM), and the selective antagonist of γ-aminobutyric acid (GABA)B receptors CGP-55845 (2 μM) (Chen et al., 2003). The washout of Mg^2+ required at least 25 min. Recordings at a holding potential near the resting membrane potential allowed us to obtain stable NMDAR-EPSC recordings from pyramidal cells lasting for 1-1.5 hours. Series resistance (Rs, range 10-25 MΩ) was compensated (20-30%) and monitored continuously. Neurons in which Rs changed by more than 20% throughout the experiment were not included in the analysis. In voltage-clamp mode, membrane potential was not corrected for liquid junction potential. […]

5×FAD mice = assay: Recency test (increased difficulty) in 5×FAD mice; assay type: in vivo, mouse; details: intranasal, 0.5 mg/kg DP12 or equimolar
Protocol: The recency test comprised of two encoding phases followed by a retrieval phase (modified from Nelson et al., 2011). The interval between the encoding phases was 1 h, and the interval between the second encoding phase and the retrieval phase was 10 min, except for experiments in 5×FAD mice when both intervals were 90 min to make the task more difficult. In the first encoding phase, animals were placed into the open field arena and allowed to explore a pair of identical objects for 10 min. Then, a different pair of identical objects was presented in the second encoding phase (10 min total exploration time). During the retrieval phase, two different objects, one object from each encoding phase, were placed into the apparatus and animals were given 10 min to explore them.
Animals were randomly assigned to treatment groups using a randomized block design to counterbalance differences in age. The time of the day when tests were performed for different animals was also counterbalanced between treatment groups using a randomized block design. All measurements and statistical analyses were performed performed blindly, i.e. the tubes containing drugs/vehicle were coded. Exploration was defined as the animal approaching the object at a distance of less than 2 cm. The animal climbing onto the object with both hind- and forelimbs was not considered as exploration. In the same trial, objects were counterbalanced, and between trials, the placements of novel and familiar objects were changed. The objects used in the novel object recognition test were not employed in the recency test. Novelty detection was evaluated by calculating the discrimination ratio as follows: [novel object time−familiar object time]/[novel object time+familiar object time]×100%. In the recency test, the discrimination ratio was calculated as follows: [least recent object time−most recent object time]/[least object time+most recent object time]×100%. Unreliable measurements (about 10%), when animals spent in total ≤10 s near to both objects, were excluded from analysis.
As the recency test was consistently used for analysis of DP12 effects in other mouse models, it was further investigated whether 13- to 14-month-old 5×FAD mice are impaired in this form of memory. In this series of experiments, the intervals between each session during recency test were increased to 90 min to increase the difficulty to recall the temporal order of the two objects shown in the arena (FIG. 12(A)). […] To verify whether DP12 or avDP10-9OAc may improve cognitive function in the 5×FAD model of AD, these compounds or a vehicle (H2O) were intranasally delivered in the same cohort of 5×FAD mice before multiple recency test sessions (separated by 4 day-interval). The numbers of mice in each treatment group during one session were counterbalanced and each mouse received in a random order both drugs and the vehicle. […] In contrast, vehicle-treated 5×FAD mice explored the two objects equally (FIG. 12(C)).

[2] = 2 hours before test, 90 min intervals

Row | Compound | reduction of EPSC amplitude on subsequent application after DP1 ([1]; endoNF-treated slices, 0.3 μM) [%] | reduction of NMDAR-EPSC amplitude on subsequent application after DP12 ([1]; endoNF-treated slices, 0.3 μM Ro 25-6981 after DP12) | inhibition of NMDAR-EPSC amplitude [1] | decrease of NMDAR-EPSC amplitude ([1]; endoNF-treated slices, 1 μg/ml) [%] | inhibition as % of the mean inhibition produced by Ro 25-6981 applied alone ([1]; endoNF-treated slices, same time window, estimated) [%] | exploration of least recent versus most recent object in the retrieval phase (5×FAD mice; [2]) | object discrimination (discrimination ratio) compared to vehicle (5×FAD mice; [2]) | number of mice showing discrimination more than 20% (5×FAD mice; n=11 5×FAD mice)
1 | C[C@@H](CN1CCC(Cc2ccccc2)CC1)[C@@H](O)c1ccc(O)cc1.O=C(O)/C=C\C(=O)O [Ro 25-6981, (αR,βS)-α-(4-hydroxyphenyl)-β-methyl-4-(phenylmethyl)-1-piperidinepropanol maleate] | ~20 | marginally | no significant inhibition | – | – | – | – | –
2 | (α(2→8)Neu5Ac)12 [DP12] | – | – | no significant inhibition | ~25 | ~90 | clear preference for the least recently explored object | significant difference in object discrimination | 10 of 11
